Counter-ions that a name gives are not always drawn.
Molecular target: T1, MASP-2 (CCP1-CCP2-SP) (Homo sapiens, UniProt O00187)
T1 construct: 15 μL of Enzyme MASP-2 (CCP1-CCP2-SP) in Assay Buffer
Assay: Enzymatic Assay for MASP-2
Assay type: biochemical
Settings: fluorogenic substrate based on C2 cleavage site, room temperature, 20 mM HEPES pH 7.4
Description: Enzymatic Assay for MASP-2
The MASP-2 assay utilizes a fluorogenic substrate, based on the cleavage site for its natural substrate C2. The assay is run at room temperature in an assay buffer containing 20 mM HEPES, pH 7.4, 140 mM NaCl and 0.1% Tween 20. Assay parameters are adjusted such that the assay is linear with respect to time, enzyme, and substrate concentrations. Under these optimized assays conditions, IC50 values are equivalent to Ki values, except in a few cases of “tight binding” inhibitors. Cases of “tight binding” or possible “slow binding” inhibitors are handled by the methods described in Copeland R. A. (2013) Evaluation of Enzyme Inhibitors in Drug Discovery. 2nd Ed., John Wiley and Sons, Inc., Chapters 5-7.
The MASP-2 assay protocol is carried out as follows. Test compounds are serially diluted in DMSO and then 100 nL of each dilution is transferred to the assay plate(s). 10 μL of Assay Buffer is added, followed by 15 μL of Enzyme MASP-2 (CCP1-CCP2-SP) in Assay Buffer. 15 μL of Substrate in Assay Buffer is then added and mixed to start the reactions. After 20 min at room temperature, 15 μL of a stop solution (0.1 M acetic acid) is added, mixed and the plates are read on a SpectraMax i3x Microplate Reader and exported as Excel files. Each assay plate included a “no inhibitor” (DMSO Only) control, a “no enzyme” control and a reference inhibitor control. % Activity values=100*(average test comp. fluorescence−average “no enzyme” fluorescence)/(average “DMSO only” fluorescence−average “no enzyme” fluorescence). IC50 and Ki values are very reproducible, falling well within ±2-fold.

T1 sequence (O00187 445-686 limits assumed): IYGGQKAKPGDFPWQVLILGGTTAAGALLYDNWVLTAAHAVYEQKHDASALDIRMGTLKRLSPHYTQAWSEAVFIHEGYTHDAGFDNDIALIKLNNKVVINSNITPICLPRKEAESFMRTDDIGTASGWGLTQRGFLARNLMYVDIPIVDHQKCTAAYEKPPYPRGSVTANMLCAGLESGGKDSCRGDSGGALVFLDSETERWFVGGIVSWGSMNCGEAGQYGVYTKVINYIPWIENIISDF
T1 sequence (O00187 298-444 partner limits assumed): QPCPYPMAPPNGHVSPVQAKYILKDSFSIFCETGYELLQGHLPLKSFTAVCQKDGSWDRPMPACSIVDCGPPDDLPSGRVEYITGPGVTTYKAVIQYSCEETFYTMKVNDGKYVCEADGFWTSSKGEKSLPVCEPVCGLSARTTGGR

| Ki [µM] | SMILES |
| --- | --- |
| < 0.5 | COC(=O)[C@H](Cc1ccc(O)cc1)Nc1ncc(-c2ccccc2)n(CC(=O)NCc2cc3cnccc3[nH]2)c1=O [Compound 163, Methyl (4-(2-(((1H-pyrrolo[3,2-c]pyridin-2-yl)methyl)amino)-2-oxoethyl)-3-oxo-5-phenyl-3,4-dihydropyrazin-2-yl)-L-tyrosinate trifluoroacetate] |
| < 0.5 | O=C(Cn1c(-c2ccccc2)cnc(NCC2(c3ccccc3)CCOC2)c1=O)NCc1cc2cnccc2[nH]1 (centres unmarked) [Compound 50, N-((1H-Pyrrolo[3,2-c]pyridin-2-yl)methyl)-2-(2-oxo-6-phenyl-3-(((3-phenyltetrahydrofuran-3-yl)methyl)amino)pyrazin-1(2H)-yl)acetamide trifluoroacetate] |
| 0.5 to 2.5 | Cn1cc(-c2cnc(NCCc3ccccc3)c(=O)n2CC(=O)NCc2cc3c(s2)CCNC3)cn1 [Compound 78, 2-(6-(1-Methyl-1H-Pyrazol-4-yl)-2-Oxo-3-(Phenethylamino)Pyrazin-1(2H)-yl)-N-((4,5,6,7-Tetrahydrothieno[3,2-c]Pyridin-2-yl)Methyl)Acetamide] |
| < 0.5 | O=C(Cn1c(-c2ccccc2)cnc(NCc2cc(F)cc(F)c2)c1=O)NCc1cc2cnccc2[nH]1 [Compound 154, N-((1H-Pyrrolo[3,2-c]pyridin-2-yl)methyl)-2-(3-((3,5-difluorobenzyl)amino)-2-oxo-6-phenylpyrazin-1(2H)-yl)acetamide] |
| > 10 | Cc1nc(N)ccc1CNC(=O)Cn1c(=O)c(NS(=O)(=O)Cc2ccccc2)cn(C)c1=O [Compound 36, N-((6-Amino-2-Methylpyridin-3-yl)Methyl)-2-(3-Methyl-2,6-Dioxo-5-((Phenylmethyl)Sulfonamido)-3,6-Dihydropyrimidin-1(2H)-yl)Acetamide, Trifluoroacetate] |
| < 0.5 | O=C(Cn1c(-c2ccccc2)cnc(NCC2(c3ccccc3)CCC2)c1=O)NCc1cc2cnccc2[nH]1 [Compound 56, N-((1H-Pyrrolo[3,2-c]pyridin-2-yl)methyl)-2-(2-oxo-6-phenyl-3-(((1-phenylcyclobutyl)methyl)amino)pyrazin-1(2H)-yl)acetamide trifluoroacetate] |
| < 0.5 | CC(O)c1cccc(-c2cnc(NCCc3ccccc3)c(=O)n2CC(=O)NCc2cc3cnccc3[nH]2)c1 (centres unmarked) [Compound 100, N-((1H-Pyrrolo[3,2-c]Pyridin-2-yl)Methyl)-2-(6-(3-(1-Hydroxyethyl)Phenyl)-2-Oxo-3-(Phenethylamino)Pyrazin-1(2H)-yl)Acetamide] |
| < 0.5 | COCCCNc1ncc(-c2ccccc2)n(CC(=O)NCc2cc3cnccc3[nH]2)c1=O [Compound 121, N-((1H-Pyrrolo[3,2-c]pyridin-2-yl)methyl)-2-(3-((3-methoxypropyl)amino)-2-oxo-6-phenylpyrazin-1(2H)-yl)acetamide trifluoroacetate] |
| < 0.5 | O=C(Cn1c(-c2ccccc2)cnc(NC2(c3ccccc3)COC2)c1=O)NCc1cc2cnccc2[nH]1 [Compound 51, N-((1H-Pyrrolo[3,2-c]pyridin-2-yl)methyl)-2-(2-oxo-6-phenyl-3-((3-phenyloxetan-3-yl)amino)pyrazin-1(2H)-yl)acetamide trifluoroacetate] |
| < 0.5 | O=C(Cn1c(-c2ccccc2)cnc(NCc2ccc(F)cc2)c1=O)NCc1cc2cnccc2[nH]1 [Compound 147, N-((1H-Pyrrolo[3,2-c]Pyridin-2-yl)Methyl)-2-(3-((4-Fluorobenzyl)Amino)-2-Oxo-6-Phenylpyrazin-1(2H)-yl)Acetamide] |
| 2.5 to 10 | CC(C)Nc1cnc(NCCc2ccccc2)c(=O)n1CC(=O)NCc1cc2cnccc2[nH]1 [Compound 160] |
| < 0.5 | Nc1nc2ccc(CNC(=O)Cn3c(-c4cccc(C(=O)O)c4)cnc(NCCc4ccccc4)c3=O)cc2[nH]1 [Compound 16] |

More lines, now with the values behind:

| SMILES | Ki [µM] |
| --- | --- |
| Cc1nc(N)ccc1CNC(=O)Cn1c(-c2cnn(C)c2)cnc(NCCc2ccccc2)c1=O [Compound 25, N-((6-Amino-2-methylpyridin-3-yl)methyl)-2-(6-(1-methyl-1H-pyrazol-4-yl)-2-oxo-3-(phenethylamino)pyrazin-1(2H)-yl)acetamide] | < 0.5 |
| CNc1nc(Cl)c(-c2ccccc2)n(CC(=O)NCc2ccc(N)nc2C)c1=O [Compound 38] | 0.5 to 2.5 |
| O=C(Cn1c(-c2cnn(C3CNC3)c2)cnc(NCCc2ccccc2)c1=O)NCc1cc2cnccc2[nH]1 [Compound 112, N-((1H-Pyrrolo[3,2-c]Pyridin-2-yl)Methyl)-2-(6-(1-(Azetidin-3-yl)-1H-Pyrazol-4-yl)-2-Oxo-3-(Phenethylamino)Pyrazin-1(2H)-yl)Acetamide Hydrochloride] | < 0.5 |
| O=C(Cn1c(-c2ccccc2)cnc(NCC2(c3cccc(F)c3)CC2)c1=O)NCc1cc2cnccc2[nH]1 [Compound 64, N-((1H-Pyrrolo[3,2-c]pyridin-2-yl)methyl)-2-(3-(((1-(3-fluorophenyl)cyclopropyl)methyl)amino)-2-oxo-6-phenylpyrazin-1(2H)-yl)acetamide] | < 0.5 |
| O=C(Cn1c(-c2ccccc2)cnc(NCc2ccc(Cl)cc2)c1=O)NCc1cc2cnccc2[nH]1 [Compound 73, N-((1H-Pyrrolo[3,2-c]pyridin-2-yl)methyl)-2-(3-((4-chlorobenzyl)amino)-2-oxo-6-phenylpyrazin-1(2H)-yl)acetamide trifluoroacetate] | < 0.5 |
| Cc1nc(N)ccc1CNC(=O)Cn1c(-c2ccccc2)cnc(N2CCOCC2)c1=O [Compound 44, N-((6-Amino-2-methylpyridin-3-yl)methyl)-2-(3-morpholino-2-oxo-6-phenylpyrazin-1(2H)-yl)acetamide] | < 0.5 |
| Cc1nn(C)cc1-c1cnc(NCCc2ccccc2)c(=O)n1CC(=O)NCc1cc2cnccc2[nH]1 [Compound 104, N-((1H-Pyrrolo[3,2-c]pyridin-2-yl)methyl)-2-(6-(1,3-dimethyl-1H-pyrazol-4-yl)-2-oxo-3-(phenethylamino)pyrazin-1(2H)-yl)acetamide] | < 0.5 |
| Nc1nc2cc(CNC(=O)Cn3c(-c4ccccc4)cnc(NCCc4ccccc4)c3=O)ccc2[nH]1 [Compound 9, N-((2-Amino-1H-Benzo[d]Imidazol-5-yl)Methyl)-2-(2-Oxo-3-(Phenethylamino)-6-Phenylpyrazin-1(2H)-yl)Acetamide] | < 0.5 |
| O=C(Cn1c(-c2cnn3c2CCC3)cnc(NCCc2ccccc2)c1=O)NCc1cc2cnccc2[nH]1 [Compound 115, N-((1H-Pyrrolo[3,2-c]pyridin-2-yl)methyl)-2-(6-(5,6-dihydro-4H-pyrrolo[1,2-b]pyrazol-3-yl)-2-oxo-3-(phenethylamino)pyrazin-1(2H)-yl)acetamide] | < 0.5 |
| O=C(Cn1c(-c2cccc(C3(O)CC3)c2)cnc(NCCc2ccccc2)c1=O)NCc1cc2cnccc2[nH]1 [Compound 98, N-((1H-Pyrrolo[3,2-c]pyridin-2-yl)methyl)-2-(6-(3-(1-hydroxycyclopropyl)phenyl)-2-oxo-3-(phenethylamino)pyrazin-1(2H)-yl)acetamide] | < 0.5 |
| O=C(Cn1c(-c2ccccc2)cnc(N2CCC3(CCNCC3)C2)c1=O)NCc1cc2cnccc2[nH]1 [Compound 54, N-((1H-Pyrrolo[3,2-c]Pyridin-2-yl)Methyl)-2-(2-Oxo-6-Phenyl-3-(2,8-Diazaspiro[4.5]Decan-2-yl)Pyrazin-1(2H)-yl)Acetamide Di-Trifluoroacetate] | 0.5 to 2.5 |
